Experimental data taken from patent US20130217578A1, “Growth inhibition of perennial forage grasses with Pyroxsulam” (Dow AgroSciences LLC, priority 2010, published 2013).

Legend:
Type in all cases: in vivo
[1] = tested on: meadow Bromegrass (BROCO, Bromus commutatus); assay: Field trial: height of meadow Bromegrass after pyroxsulam application; conditions: for Height (cm): mean of 3 replicates
Procedure: (§1) Trials were conducted under field conditions in Canada. Trial sites were located in perennial forage grass areas. Forage grasses tested included: Bromegrass, Timothy Fescue and Wheatgrass species, including: meadow Bromegrass (BROCO, Bromus commutatus), smooth Brome grass (BROIN, Bromus inermus), Timothy (PHLPR, Phleum pretense), creeping red Fescue (FESRU, Festuca rubra), Tall Fescue (FESAR, Festuca arundinacea), and Western Wheatgrass (AGRSM, Agropyron smithii). The grasses were grown using normal cultural practices for fertilization, seeding, and maintenance to ensure good growth of the grasses. The trials were conducted using normal research methodology. Trial plots were between 2 to 5 meters (m) wide by 5 to 20 m long. All treatments were applied using a randomized complete block trial design with 3 or 4 replications per treatment. The trial sites had populations of homogeneous or heterogeneous perennial forage grass species present. Treatments consisted of pyroxsulam formulations (Simplicity® (trademark of Dow AgroSciences LLC for pyroxsulam+cloquintocet) or water-dispersible formulations of pyroxsulam) alone, or in tank mixes with Milestone® herbicide (trademark of Dow AgroSciences LLC for aminopyralid) or ClearView® herbicide (trademark of Dow AgroSciences LLC for aminopyralid+metsulfuron-methyl) with or without 2,4-D ester applied in water. Adjuvants were applied at 0.2% to 0.5% V/V. The application volumes were between 50 to 200 liters per hectare (L/ha). All application were made using precision gas hand sprayers or calibrated ATV sprayer using a 2 or 5 m boom using flat fan (80° or 110°) nozzles to broadcast the treatments post-emergent on the vegetation or soil.
(§2) The treated plots and control plots were rated blind at various intervals after application. Ratings were based on Percent (%) Visual growth suppression (reduction) from untreated grass, where […] or growth inhibition compared to the untreated grass growth. Quantitative measurements were also taken at various intervals after application, and measured in cm or inches height of leaf blade top height from the ground.

[2] = tested on: All grass species combined (CRFescue, Brome Grass, Quackgrass); assay: Field trial: biomass reduction of pyroxsulam-treated vs untreated grass; conditions: 30 DAA
Procedure: Trials were conducted under field conditions in Canada. Trial sites were located in perennial forage grass areas. Forage grasses tested included: Bromegrass, Timothy Fescue and Wheatgrass species, including: meadow Bromegrass (BROCO, Bromus commutatus), smooth Brome grass (BROIN, Bromus inermus), Timothy (PHLPR, Phleum pretense), creeping red Fescue (FESRU, Festuca rubra), Tall Fescue (FESAR, Festuca arundinacea), and Western Wheatgrass (AGRSM, Agropyron smithii). The grasses were grown using normal cultural practices for fertilization, seeding, and maintenance to ensure good growth of the grasses. The trials were conducted using normal research methodology. Trial plots were between 2 to 5 meters (m) wide by 5 to 20 m long. All treatments were applied using a randomized complete block trial design with 3 or 4 replications per treatment. The trial sites had populations of homogeneous or heterogeneous perennial forage grass species present. […]
The treated plots and control plots were rated blind at various intervals after application. […] Quantitative measurements were also taken at various intervals after application, and measured in cm or inches height of leaf blade top height from the ground.

[3] = tested on: creeping red Fescue (FESRU, Festuca rubra); assay: Field trial: percent growth inhibition of creeping red Fescue
Procedure: as §1, §2

[4] = 15 g ai/ha, 0 days after application
[5] = 15 g ai/ha, 7 days after application
[6] = 15 g ai/ha, 14 days after application
[7] = 15 g ai/ha, 21 days after application
[8] = 15 g ai/ha, 30 days after application
[9] = 15 g ai/ha, 37 days after application
[10] = 15 g ai/ha, 42 days after application
[11] = 15 g ai/ha, 50 days after application
[12] = 15 g ai/ha, 56 days after application
[13] = 15 g ai/ha, 65 days after application
[14] = 15 g ai/ha, 72 days after application
[15] = 30 g ai/ha, 0 days after application
[16] = 30 g ai/ha, 7 days after application
[17] = 30 g ai/ha, 14 days after application
[18] = 30 g ai/ha, 21 days after application
[19] = 30 g ai/ha, 30 days after application
[20] = 30 g ai/ha, 37 days after application
[21] = 30 g ai/ha, 42 days after application
[22] = 30 g ai/ha, 50 days after application
[23] = 30 g ai/ha, 56 days after application
[24] = 30 g ai/ha, 65 days after application
[25] = 30 g ai/ha, 72 days after application

COc1cc(OC)n2nc(NS(=O)(=O)c3c(C(F)(F)F)ccnc3OC)nc2n1 [Pyroxsulam, N-(5,7-dimethoxy[1,2,4]-triazolo[1,5-α]pyrimidin-2-yl)-2-methoxy-4-(trifluoromethyl)-3-pyridinesulfonamide]
Height (% of Untreated) [1, 4]: 100.0% | Height (cm) [1, 4]: 20 cm | Height (% of Untreated) [1, 5]: 57.1% | Height (cm) [1, 5]: 20 cm | Height (% of Untreated) [1, 6]: 50.0% | Height (cm) [1, 6]: 25 cm | Height (% of Untreated) [1, 7]: 47.6% | Height (cm) [1, 7]: 30 cm | Height (% of Untreated) [1, 8]: 45.0% | Height (cm) [1, 8]: 27 cm | Height (% of Untreated) [1, 9]: 43.1% | Height (cm) [1, 9]: 28 cm | Height (% of Untreated) [1, 10]: 45.2% | Height (cm) [1, 10]: 33 cm | Height (% of Untreated) [1, 11]: 53.8% | Height (cm) [1, 11]: 42 cm | Height (% of Untreated) [1, 12]: 52.4% | Height (cm) [1, 12]: 43 cm | Height (% of Untreated) [1, 13]: 58.5% | Height (cm) [1, 13]: 48 cm | Height (% of Untreated) [1, 14]: 76.8% | Height (cm) [1, 14]: 63 cm | Height (% of Untreated) [1, 15]: 100.0% | Height (cm) [1, 15]: 20 cm | Height (% of Untreated) [1, 16]: 57.1% | Height (cm) [1, 16]: 20 cm | Height (% of Untreated) [1, 17]: 50.0% | Height (cm) [1, 17]: 25 cm | Height (% of Untreated) [1, 18]: 44.4% | Height (cm) [1, 18]: 28 cm | Height (% of Untreated) [1, 19]: 41.7% | Height (cm) [1, 19]: 25 cm | Height (% of Untreated) [1, 20]: 38.5% | Height (cm) [1, 20]: 25 cm | Height (% of Untreated) [1, 21]: 45.2% | Height (cm) [1, 21]: 33 cm | Height (% of Untreated) [1, 22]: 51.3% | Height (cm) [1, 22]: 40 cm | Height (% of Untreated) [1, 23]: 51.2% | Height (cm) [1, 23]: 42 cm | Height (% of Untreated) [1, 24]: 52.4% | Height (cm) [1, 24]: 43 cm | Height (% of Untreated) [1, 25]: 57.3% | Height (cm) [1, 25]: 47 cm | Biomass reduction (%) ([2]; 15 g/ha): 40% | Biomass reduction (%) ([2]; 30 g/ha): 38% | % Growth Inhibition ([3]; 15 g ai/ha, week 1): 0% | % Growth Inhibition ([3]; 15 g ai/ha, week 2): 7% | % Growth Inhibition ([3]; 15 g ai/ha, week 3): 35% | % Growth Inhibition ([3]; 15 g ai/ha, week 4): 30% | % Growth Inhibition ([3]; 15 g ai/ha, week 5): 23% | % Growth Inhibition ([3]; 15 g ai/ha, week 6): 21% | % Growth Inhibition ([3]; 15 g ai/ha, week 7): 15% | % Growth Inhibition ([3]; 15 g ai/ha, week 8): 4% | % Growth Inhibition ([3]; 15 g ai/ha, week 9): 8% | % Growth Inhibition ([3]; 15 g ai/ha, week 10): 12% | % Growth Inhibition ([3]; 30 g ai/ha, week 1): 0% | % Growth Inhibition ([3]; 30 g ai/ha, week 2): 14% | % Growth Inhibition ([3]; 30 g ai/ha, week 3): 35% | % Growth Inhibition ([3]; 30 g ai/ha, week 4): 32% | % Growth Inhibition ([3]; 30 g ai/ha, week 5): 32% | % Growth Inhibition ([3]; 30 g ai/ha, week 6): 21% | % Growth Inhibition ([3]; 30 g ai/ha, week 7): 19% | % Growth Inhibition ([3]; 30 g ai/ha, week 8): 12% | % Growth Inhibition ([3]; 30 g ai/ha, week 9): 4% | % Growth Inhibition ([3]; 30 g ai/ha, week 10): 12%
